According to the C3SDB collision cross section collection:

conditions: [M+H]+; instrument: DT; stepped-field

| Structure (SMILES) | collision cross section (N2) [Å²] |
| --- | --- |
| CCCCC/C=C\C/C=C\C/C=C\CCCCC(=O)O[C@H](COCCCCCCCCCCCCCCCCCC)COP(=O)(O)OCCN [PE(o36:03)] | 272.47 |
| CCCCCC/C=C\CCCCCCCC(=O)OC[C@H](COP(=O)(O)OC[C@H](N)C(=O)O)OC(=O)CCCCCCCCC/C=C\CCCCCCCCCC [PS(38:02)] | 287.73 |

Second part, the compound after the results:

| collision cross section (N2) [Å²] | Structure (SMILES) |
| --- | --- |
| 307.52 | CCCCCCCCCCCCC=CC[C@@H](O)[C@H](COP(=O)([O-])OCC[N+](C)(C)C)NC(=O)CC=CCCCCCCCCCCCCCCCCCCCCCC [SM(44:02)] |
| 299.26 | CCCCCCCCCCCCC=CC[C@@H](O)[C@H](CO[C@@H]1O[C@H](CO)[C@@H](O)C(O)C1O)NC(=O)CC=CCCCCCCCCCCCCCCCCCCCC (some centres not stated) [GlcCer(42:02)] |
| 284.63 | CCCCCCCC/C=C\CCCCCCCC(=O)O[C@H](COC(=O)CCCCCCCCCCCCCCCC)COP(=O)([O-])OCC[N+](C)(C)C [PC(35:01)] |
| 286.24 | CCCCCCCCCCCCC=CC[C@@H](O)[C@H](COP(=O)([O-])OCC[N+](C)(C)C)NC(=O)CCCCCCCCCCCCCCCCC [SM(36:01)] |
| 280.06 | CCCCCCCCCCCCC=CC[C@@H](O)[C@H](COP(=O)([O-])OCC[N+](C)(C)C)NC(=O)CCCCCCCCCCCCCCC [SM(34:01)] |

same assay, conditions: [M+K]+; instrument: DT; stepped-field

| collision cross section (N2) [Å²] | Structure (SMILES) |
| --- | --- |
| 292.76 | CCCCC/C=C\C/C=C\C/C=C\C/C=C\CCCCCC(=O)O[C@H](COC(=O)CCCCCCC/C=C\C/C=C\CCCCC)COP(=O)(O)OC[C@H](N)C(=O)O [PS(40:06)] |
| 287.48 | CCCCCCCC/C=C\CCCCCCCC(=O)O[C@H](COC(=O)CCCCCCCCCCCCCCCCC)COP(=O)(O)OC[C@H](N)C(=O)O [PS(36:01)] |
| 282.77 | CCCCC/C=C\C/C=C\C/C=C\CCCCCCC(=O)O[C@H](COC(=O)CCCCCCC/C=C\C/C=C\CCCCC)COP(=O)(O)OCCN [PE(38:05)] |
| 277.24 | CCCCCCCC/C=C\C/C=C\CCCCC(=O)OC[C@H](COP(=O)(O)OCCN)OC(=O)CCCC/C=C\C/C=C\CCCCCCCC [PE(36:04)] |
| 288.38 | CCCCCCCCCCCCC=CC[C@@H](O)[C@H](COP(=O)([O-])OCC[N+](C)(C)C)NC(=O)CCCCCCCCCCCCCCCCC [SM(36:01)] |

same assay, conditions: [M+Na-2H2O]+; instrument: DT; stepped-field

| collision cross section (N2) [Å²] | Structure (SMILES) |
| --- | --- |
| 313.61 | CCCCCCCCCCCCCCCCCCCCCCCCCCCCC(=O)N[C@@H](CO[C@@H]1O[C@H](CO)[C@@H](O)C(O)C1O)[C@H](O)CCCCCCCCCCCCCCC (some centres not stated) [GlcCer(47:00)] |

same assay, conditions: [M+Na-H2O]+; instrument: DT; stepped-field

| collision cross section (N2) [Å²] | Structure (SMILES) |
| --- | --- |
| 280.09 | CCCCCCCCCCCCC=CC[C@@H](O)[C@H](COP(=O)([O-])OCC[N+](C)(C)C)NC(=O)CCCCCCCCCCCCCCCCC [SM(36:01)] |

same assay, conditions: [M+Na]+; instrument: DT; stepped-field

| Structure (SMILES) | collision cross section (N2) [Å²] |
| --- | --- |
| CCCCC/C=C\C/C=C\CCCCCCCCCC(=O)O[C@H](COC(=O)CCCCCCC/C=C\CCCCCC)COP(=O)(O)O [PA(36:03)] | 270.97 |
| CC/C=C\C/C=C\C/C=C\CCCCCCCC(=O)O[C@H](COC(=O)CCCCCCCCCCCCCCC)COP(=O)(O)OCCN [PE(34:03)] | 271.73 |
| CCCCC/C=C\C/C=C\C/C=C\C/C=C\CCCCCC(=O)O[C@H](COC(=O)CCCCCCC/C=C\C/C=C\CCCCC)COP(=O)(O)OC[C@H](N)C(=O)O [PS(40:06)] | 291.7 |
| CCCCC/C=C\C/C=C\C/C=C\C/C=C\CCCCCC(=O)O[C@H](COC(=O)CCC/C=C\C/C=C\C/C=C\C/C=C\CCCCC)COP(=O)(O)OCCN [PE(42:08)] | 290.41 |
| CCCCC/C=C\C/C=C\C/C=C\CCCCC(=O)O[C@H](COCCCCCCCCCCCCCCCCCC)COP(=O)(O)OCCN [PE(o36:03)] | 277.92 |
| CC/C=C\C/C=C\C/C=C\C/C=C\C/C=C\C/C=C\CCC(=O)O[C@H](COC(=O)CCCCCC/C=C\C/C=C\C/C=C\CCCCC)COP(=O)(O)OCCN [PE(42:09)] | 288.64 |
| CC/C=C\C/C=C\C/C=C\CCCCCCCC(=O)O[C@H](COC(=O)CCCCC/C=C\C/C=C\C/C=C\C/C=C\CCCCC)COP(=O)(O)OC[C@H](N)C(=O)O [PS(40:07)] | 289.65 |
| CCCCC/C=C\C/C=C\CCCCCCCC(=O)O[C@H](COCCCCCCCCCCCCCCCC)COP(=O)(O)OCCN [PE(o34:02)] | 273.65 |
| CCCCC/C=C\C/C=C\CCCCCCCCCC(=O)O[C@H](COC(=O)CCCCCCC/C=C\CCCCCCCC)COP(=O)(O)O [PA(38:03)] | 277.43 |

Second part, the compound after the results:

| collision cross section (N2) [Å²] | Structure (SMILES) |
| --- | --- |
| 303.14 | CCCCCCCCCCCCCCCCCCCCCCCC(=O)N[C@@H](CO[C@@H]1O[C@H](CO)[C@@H](O)C(O)C1O)[C@H](O)CCCCCCCCCCCCCCC (some centres not stated) [GlcCer(42:00)] |
| 290.28 | CCCCCCCCCCCCC=CC[C@@H](O)[C@H](CO[C@@H]1O[C@H](CO)[C@@H](O)C(O)C1O)NC(=O)CC=CCC=CCCCCCCCCCCCCCCC (some centres not stated) [GlcCer(40:03)] |
| 306.5 | CCCCCCCCCCCCC=CC[C@@H](O)[C@H](COP(=O)([O-])OCC[N+](C)(C)C)NC(=O)CC=CCCCCCCCCCCCCCCCCCCCCCC [SM(44:02)] |
| 299.53 | CCCCCCCCCCCCC=CC[C@@H](O)[C@H](CO[C@@H]1O[C@H](CO)[C@@H](O)C(O)C1O)NC(=O)CC=CCCCCCCCCCCCCCCCCCCCC (some centres not stated) [GlcCer(42:02)] |
| 287.14 | CCCCCCCC/C=C\CCCCCCCC(=O)O[C@H](COC(=O)CCCCCCCCCCCCCCCC)COP(=O)([O-])OCC[N+](C)(C)C [PC(35:01)] |
| 276.86 | CCCCC/C=C\C/C=C\CCCCCCCC(=O)O[C@H](COC(=O)CCCCCCCCCCCCC)COP(=O)([O-])OCC[N+](C)(C)C [PC(32:02)] |
| 285.86 | CCCCCCCCCCCCC=CC[C@@H](O)[C@H](COP(=O)([O-])OCC[N+](C)(C)C)NC(=O)CCCCCCCCCCCCCCCCC [SM(36:01)] |
| 278.77 | CCCCCCCCCCCCC=CC[C@@H](O)[C@H](COP(=O)([O-])OCC[N+](C)(C)C)NC(=O)CCCCCCCCCCCCCCC [SM(34:01)] |
| 279.26 | CCCC/C=C\CCCCCCCC(=O)OC[C@H](COP(=O)(O)OCCN)OC(=O)CCCCCCCCCCCCCCCCCCCC [PE(35:01)] |
| 279.74 | CCCCC/C=C\C/C=C\CCCCCCCCCCCC(=O)O[C@H](COC(=O)CCCCCCCCCCCCCCC)COP(=O)(O)O [PA(38:02)] |
| 297.42 | CCCCC/C=C\C/C=C\C/C=C\C/C=C\CCCC(=O)O[C@H](COC(=O)CCCCCCCCCCCCCCCCCCC)COP(=O)([O-])OCC[N+](C)(C)C [PC(40:04)] |

same assay, conditions: [M-H]-; instrument: DT; stepped-field

| collision cross section (N2) [Å²] | Structure (SMILES) |
| --- | --- |
| 263.76 | CC/C=C\C/C=C\C/C=C\CCCCCCCC(=O)O[C@H](COC(=O)CCCCCCCCCCCCCCC)COP(=O)(O)OCCN [PE(34:03)] |
| 289.09 | CCCCC/C=C\C/C=C\C/C=C\C/C=C\CCCCCC(=O)O[C@H](COC(=O)CCCCCCC/C=C\C/C=C\CCCCC)COP(=O)(O)OC[C@H](N)C(=O)O [PS(40:06)] |
| 282.92 | CCCCCCCC/C=C\CCCCCCCC(=O)O[C@H](COC(=O)CCCCCCCCCCCCCCCCC)COP(=O)(O)OC[C@H](N)C(=O)O [PS(36:01)] |
| 274.82 | CCCCC/C=C\C/C=C\C/C=C\CCCCCCC(=O)O[C@H](COC(=O)CCCCCCC/C=C\C/C=C\CCCCC)COP(=O)(O)OCCN [PE(38:05)] |
| 269.7 | CCCCCCCC/C=C\C/C=C\CCCCC(=O)OC[C@H](COP(=O)(O)OCCN)OC(=O)CCCC/C=C\C/C=C\CCCCCCCC [PE(36:04)] |
| 287.37 | CC/C=C\C/C=C\C/C=C\CCCCCCCC(=O)O[C@H](COC(=O)CCCCC/C=C\C/C=C\C/C=C\C/C=C\CCCCC)COP(=O)(O)OC[C@H](N)C(=O)O [PS(40:07)] |
| 280.5 | CCCCC/C=C\C/C=C\C/C=C\C/C=C\CCCCCC(=O)O[C@H](COC(=O)CCCCCCC/C=C\C/C=C\CCCCC)COP(=O)(O)OCCN [PE(40:06)] |
| 287.56 | CCCCCC/C=C\CCCCCCCC(=O)OC[C@H](COP(=O)(O)OC[C@H](N)C(=O)O)OC(=O)CCCCCCCCC/C=C\CCCCCCCCCC [PS(38:02)] |
